Experimental data taken from patent US8211875B2, “Local treatment of neurofibromas” (Nexgenix Pharmaceuticals Inc, priority 2005, dated 2012).

How the values were obtained:
[1] = test system: Fresh human dermal neurofibroma; test: Ex vivo tumor explant assay, histological score; type: cell-based; conditions: compound added day 1, collected day 3, criterion “+” or more
Procedure: The efficacy of the compound/agent was tested in an ex vivo tumor explant model as follows. Fresh human dermal neurofibroma was cut into eight small pieces and cultured on standard cell culture plates with medium containing DMEM/F12, 10% FBS, heregulin and forskolin. The pieces were divided into treatment and control groups. Compound at different doses was added to the medium on day 1. No compound was added in the negative control group. All tumor pieces were collected on day 3 and processed for histology by formalin fixation and paraffin embedding. Tissue sections were cut and stained with hematoxylin-eosin for histological analysis. The histological analysis of the paired explant samples was conducted blindly. Three histological parameters were used to score the samples from “−” to “+++”: 1) overall tissue integrity; we evaluate tissue integrity by comparing the cellularity of treated samples to the negative control samples. The low cellularity area was defined as >30% less nucleus than the similar area on the control sample. The photograph of each sample at 40× under a bright field microscopy was take using MagnaFire digital camera (Optronics, USA) and stored in computer. The low cellularity areas in the pictures were measured using Photoshop and calculated as Length×Width, and then expressed as a percentage over the total area of the sample. Overall tissue integrity was scored using 0 to 2+ score. In short, good tissue integrity is scored 0 (<5%), 1+ indicates medium tissue integrity (5-25%), 2+ low tissue integrity (>25%). Only 2+ cases were regarded as positive “+” for the final total score; 2) cell death—slides were evaluated by bright field microscopy. At least 100 cells per view were counted. Cell death was scored semi-quantitatively using the 0 to 3+ score. The absence of condensed or fragmented nucleus is scored 0, 1+ indicates the lowest level of detectable cell death (<10%), 2+ moderate cell death ([…]), and 3+ high cell death (>30%). All 2+ and 3+ cases were regarded as positive “+” for the final total score; and 3) effect on vasculatures.—slides were evaluated by bright field microscopy. The effect on vasculature in treated samples was determined by comparing with the vasculatures in control negative samples. At least 20 vasculatures per sample were counted. Effect on vasculatures was scored semi-quantitatively using the […]. In short, absence or the lowest level of damaged vasculature is scored 0 (<5%), 1+ indicates of some damaged vasculature (5-25%), 2+ high (>25%). All 1+ and 2+ cases were regarded as positive “+” for the final total score. Final histological score was the sum of the scores of the above three parameters, expressed as “−” to “+++”. Any compound with a histological score of “+” or more will be potential good candidates for local treatment of neurofibromas.

[2] = Cell proliferation assay (ATPlite) in a panel of NF1 related cell lines; type: cell-based, human and mouse; conditions: 72 h; read-out: IC50 (concentration required for inhibition of cell proliferation by 50%)
Procedure: Several physiologically relevant cells or cell lines were employed to measure compound potency in cell proliferation assays. These cells include: (1) NF1-deficient human malignant peripheral nerve sheath tumor (MPNST) cells, (2) Nf1^−/− mouse embryonic Schwann cells, and (3) Nf1- and p53-deficient mouse cell. […] All the other cells are grown in DMEM with 10% fetal bovine serum (FBS).
Various concentrations of each compound/agent to be tested were added to the growing media and the cells were then cultured for 3 days. […] Viable cells were measured by detecting luminescence generated from reaction of ATPlite solution and the ATP in the cells.

cutaneous neurofibromas = test: Proof-of-concept intralesional administration study in NF1 subjects; type: in vivo, human; conditions: intralesional injection once weekly for 4 weeks, all controls showed no change
From the text: The study was a proof-of-concept, prospective, safety and efficacy study of the effect of intralesionally administered drugs given once a week to 3 target cutaneous neurofibromas for 4 consecutive weeks. Six subjects were enrolled. […] All subjects were from 18 to 65 years of age, inclusive. All subjects otherwise were in good health, or had stable concomitant medical conditions appropriately managed by a primary care physician. […] After screening and enrollment, all subjects received a defined volume (based on the size of the lesion) of intralesional drug once weekly into 3 target cutaneous neurofibromas that are 0.5 to 1.5 cm in diameter, inclusive, in its largest dimension. Each target cutaneous neurofibroma was different in size, with one 0.5 to 0.8 cm in diameter, a second between 0.81 to 1.2 cm in diameter, and a third 1.21 to 1.5 cm in diameter. Concomitantly, three control cutaneous neurofibromas found on the torso and/or appendages of the same range in sizes received sterile normal saline. All lesions prior to injection were locally anesthetized with lidocaine 1% and epinephrine 1:100,000. […] Assessment included the exact measured dimensions (in two axes) of the […] assessed lesions. […]

Compound | Final histological score (tissue integrity, cell death, effect on vasculatures) [1] | IC50 [2] [µM] | tumors injected showing partial or complete elimination of the dermal neurofibroma (cutaneous neurofibromas) [%]
COc1cc([C@@H]2c3cc4c(cc3[C@H](O)[C@H]3COC(=O)[C@H]23)OCO4)cc(OC)c1OC [Podophyllotoxin] | + | ≤ 10 | 
O=c1cc(N2CCOCC2)oc2c(-c3ccccc3)cccc12 [LY294002, 2-(4-Morpholinyl)-8-phenyl-4H-1-benzopyran-4-one] |  | ≤ 10 | 
CC(/C=C/C(=O)NO)=C\[C@@H](C)C(=O)c1ccc(N(C)C)cc1 [Tricostatin A] | + | ≤ 10 | 
C[C@H]1c2cccc(O)c2C(=O)C2=C(O)[C@]3(O)C(=O)C(C(N)=O)=C(O)[C@@H](N(C)C)[C@@H]3[C@@H](O)[C@@H]21.Cl [Doxycycline] |  | ≤ 10 | 89
CCCC(CCC)C(=O)O [Valproic acid] | + |  | 
C[C@@H]1C[C@H]2O[C@@H]2/C=C\C=C\C(=O)Cc2c(Cl)c(O)cc(O)c2C(=O)O1 [radicicol, Radicicol] | + | ≤ 10 | 
COc1cc2ncnc(N3CCN(C(=S)NCc4ccc5c(c4)OCO5)CC3)c2cc1OC [KN2941, 4-(6.7-dimethoxy-4-quinazolinyl)-N-(3,4-methylenedioxybenzyl)-1-piperazinethiocarboxamide] |  | ≤ 10 | 
CC1=C(/C=C/C(C)=C/C=C/C(C)=C/C(=O)O)C(C)(C)CCC1 [retinoic acid, 3,7-dimethyl-9-(2,6,6-trimethyl-1-cyclohexenyl)-nona-2,4,6,8-tetraenoic acid] |  | ≤ 10 | 
COC(=O)Nc1nc2cc(C(=O)c3ccccc3)ccc2[nH]1 [Mebendazole] | + | ≤ 10 | 
S=P(N1CC1)(N1CC1)N1CC1 [Thiotepa] | + | ≤ 10 | 
CO[C@H]1C[C@@H]2CC[C@@H](C)[C@@](O)(O2)C(=O)C(=O)N2CCCC[C@H]2C(=O)O[C@H]([C@H](C)C[C@@H]2CC[C@@H](O)[C@H](OC)C2)CC(=O)[C@H](C)/C=C(\C)[C@@H](O)[C@@H](OC)C(=O)[C@H](C)C[C@H](C)/C=C/C=C/C=C/1C [rapamycin, Rapamycin] |  | ≤ 10 | 
Bleomycin | + |  | 
COc1cc(/C=C/C(=O)CC(=O)/C=C/c2ccc(O)c(OC)c2)ccc1O [curcumin, Curcumin] |  | ≤ 10 | 
O=C(O[C@@H]1Cc2c(O)cc(O)cc2O[C@@H]1c1cc(O)c(O)c(O)c1)c1cc(O)c(O)c(O)c1 [EGCG, (−)-Epigallocatechin Gallate] |  | ≤ 10 | 
Nc1ncnc2c1ccn2[C@@H]1O[C@H](CO)[C@@H](O)[C@H]1O [Tubercidin] | + | ≤ 10 | 
CCN(CC)CCNC(=O)c1c(C)[nH]c(/C=C2\C(=O)Nc3ccc(Cl)cc32)c1C [SU11652, 5-[(Z)-(5-Chloro-2-oxo-1,2-dihydro-3H-indol-3-ylidene)methyl]-N-[2-(diethylamino)ethyl]-2,4-dimethyl-1H-pyrrole-3-carboxamide] |  | ≤ 10 | 
CC1=C(/C=C/C(C)=C/C=C/C(C)=C/C(=O)Nc2ccc(O)cc2)C(C)(C)CCC1 [Fenretinide] | + | ≤ 10 | 
CC[C@@]1(O)C(=O)OCc2c1cc1n(c2=O)Cc2cc3ccccc3nc2-1 [Camptothecin] |  | ≤ 10 | 
N#CC(=C(/N)Sc1ccccc1N)/C(C#N)=C(\N)Sc1ccccc1N [U0126, 1,4-Diamino-2,3-dicyano-1,4-bis(2-aminophenylthio)-butadiene] |  | ≤ 10 | 
O=c1[nH]cc(F)c(=O)[nH]1 [5-fluorouracil] | + | ≤ 10 | 
Nc1nc(Cl)nc2c1ncn2[C@H]1C[C@H](O)[C@@H](CO)O1 [Cladribine] |  | ≤ 10 | 
CCCCCCCCCCCCCCCCOP(=O)([O-])OCC[N+](C)(C)C [miltefosine, Miltefosine] |  | ≤ 10 | 
O=C([O-])Cc1ccccc1Nc1c(Cl)cccc1Cl.[Na+] [Diclofenac] | + |  | 48
C=CCNC1=C2C[C@@H](C)C[C@H](OC)[C@H](O)[C@@H](C)/C=C(\C)[C@H](OC(N)=O)[C@@H](OC)/C=C\C=C(/C)C(=O)NC(=CC1=O)C2=O [17-AAG, 17-(Allylamino)-17-demethoxygeldanamycin] | + | ≤ 10 | 
NC(=O)c1cn([C@@H]2O[C@H](CO)C(O)C2O)c2ncnc(N)c12 (stereo partly shown) [Sangivamycin] | + | ≤ 10 | 
